Laboratory results as given in patent US12653809B2, “Urea, amide, and substituted heteroaryl compounds for CBL-B inhibition” (Nurix Therapeutics, Inc., priority 2019, dated 2026).
Where two headings read alike, the source gives them in different places.

Target: T1, Cbl-b (truncated variant, UniProt number Q13191) (Homo sapiens, UniProt Q13191)
T1 construct: made in house
Test: Cbl-b activity assay (TR-FRET, interaction of Cbl-b with UbcH5B-Ub)
Format: biochemical

[1] = Biological Example 1A, low or high conditions not stated, read-out: IC50 values in the Cbl-b inhibition assay of Biological Example 1A
[2] = high conditions: 100 mM NaCl, 60 nM Src kinase, 12 nM Cbl-b, read-out: Cbl-b activity IC50

T1 sequence (Q13191 36-427): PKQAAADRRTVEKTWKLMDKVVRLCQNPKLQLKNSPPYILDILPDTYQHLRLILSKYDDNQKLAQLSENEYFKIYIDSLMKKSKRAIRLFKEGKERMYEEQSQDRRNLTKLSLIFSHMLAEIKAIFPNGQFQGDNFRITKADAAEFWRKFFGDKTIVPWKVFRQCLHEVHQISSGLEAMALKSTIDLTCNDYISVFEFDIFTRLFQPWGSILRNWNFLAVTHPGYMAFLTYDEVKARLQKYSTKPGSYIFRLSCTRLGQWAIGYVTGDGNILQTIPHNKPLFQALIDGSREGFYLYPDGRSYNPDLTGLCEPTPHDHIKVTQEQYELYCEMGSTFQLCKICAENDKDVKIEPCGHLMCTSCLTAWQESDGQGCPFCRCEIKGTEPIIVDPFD

Row | SMILES | IC50 [1] [µM] | IC50 [2] [µM]
1 | C[C@H](Sc1nncn1C)c1cccc(-n2ncc(-c3ccc(Cl)cc3)n2)c1 [Example 72, (S)-4-(4-chlorophenyl)-2-(3-(1-((4-methyl-4H-1,2,4-triazol-3-yl)thio)ethyl)phenyl)-2H-1,2,3-triazole] | 1 to 5 | 1 to 5
2 | C[C@H](Sc1nncn1C)c1cccc(-n2cc(-c3ccc(Cl)cc3)nn2)c1 [Example 73, (S)-4-(4-chlorophenyl)-1-(3-(1-((4-methyl-4H-1,2,4-triazol-3-yl)thio)ethyl)phenyl)-1H-1,2,3-triazole] | 1 to 5 | 1 to 5
3 | COc1ccc(-c2cnn(-c3cccc([C@H](C)Sc4nncn4C)c3)n2)cc1 [Example 74, (S)-4-(4-methoxyphenyl)-2-(3-(1-((4-methyl-4H-1,2,4-triazol-3-yl)thio)ethyl)phenyl)-2H-1,2,3-triazole] | 0.1 to 1 | 0.1 to 1
4 | COc1ccc(-c2cn(-c3cccc([C@H](C)Sc4nncn4C)c3)nn2)cc1 [Example 75, (S)-4-(4-methoxyphenyl)-1-(3-(1-((4-methyl-4H-1,2,4-triazol-3-yl)thio)ethyl)phenyl)-1H-1,2,3-triazole] |  | 1 to 5
5 | C[C@H](Sc1nncn1C)c1cccc(-n2ncc(-c3ccc(C(=O)O)cc3)n2)c1 [Example 80, (S)-4-(2-(3-(1-(4-methyl-4H-1,2,4-triazol-3-ylthio)ethyl)phenyl)-2H-1,2,3-triazol-4-yl)benzoic acid] | ≥ 5 | ≥ 5
6 | C[C@H](Sc1nncn1C)c1cccc(-n2cc(-c3ccc(C(=O)O)cc3)nn2)c1 [Example 81, (S)-4-(1-(3-(1-(4-methyl-4H-1,2,4-triazol-3-ylthio)ethyl)phenyl)-1H-1,2,3-triazol-4-yl)benzoic acid] | ≥ 5 | ≥ 5
7 | CNC(=O)c1ccc(-c2cnn(-c3cccc([C@H](C)Sc4nncn4C)c3)n2)cc1 [Example 82, (S)—N-methyl-4-(2-(3-(1-(4-methyl-4H-1,2,4-triazol-3-ylthio)ethyl)phenyl)-2H-1,2,3-triazol-4-yl)benzamide] | 1 to 5 | 1 to 5
8 | CNC(=O)c1ccc(-c2cn(-c3cccc([C@H](C)Sc4nncn4C)c3)nn2)cc1 [Example 83, (S)—N-methyl-4-(1-(3-(1-(4-methyl-4H-1,2,4-triazol-3-ylthio)ethyl)phenyl)-1H-1,2,3-triazol-4-yl)benzamide] | ≥ 5 | ≥ 5
9 | C[C@H](Sc1nncn1C)c1cccc(-n2ncc(-c3ccc(CO)cc3)n2)c1 [Example 84, (S)-(4-(2-(3-(1-(4-methyl-4H-1,2,4-triazol-3-ylthio)ethyl)phenyl)-2H-1,2,3-triazol-4-yl)phenyl)methanol] | 1 to 5 | 1 to 5
10 | C[C@H](Sc1nncn1C)c1cccc(-n2cc(-c3ccc(CO)cc3)nn2)c1 [Example 85, (S)-(4-(1-(3-(1-(4-methyl-4H-1,2,4-triazol-3-ylthio)ethyl)phenyl)-1H-1,2,3-triazol-4-yl)phenyl)methanol] | ≥ 5 | ≥ 5
11 | C[C@H](Sc1nncn1C)c1cccc(-n2ncc(-c3ccc(C(N)=O)cc3)n2)c1 [Example 86, (S)-4-(2-(3-(1-(4-methyl-4H-1,2,4-triazol-3-ylthio)ethyl)phenyl)-2H-1,2,3-triazol-4-yl)benzamide] | 1 to 5 | 1 to 5
12 | C[C@H](Sc1nncn1C)c1cccc(-n2cc(-c3ccc(C(N)=O)cc3)nn2)c1 [Example 87, (S)-4-(1-(3-(1-(4-methyl-4H-1,2,4-triazol-3-ylthio)ethyl)phenyl)-1H-1,2,3-triazol-4-yl)benzamide] | 1 to 5 | 1 to 5
13 | C[C@H](Sc1nncn1C)c1cccc(-n2ncc(-c3ccc(C#N)cc3)n2)c1 [Example 88, (S)-4-(2-(3-(1-(4-methyl-4H-1,2,4-triazol-3-ylthio)ethyl)phenyl)-2H-1,2,3-triazol-4-yl)benzonitrile] | 0.1 to 1 | 0.1 to 1
14 | C[C@H](Sc1nncn1C)c1cccc(-n2cc(-c3ccc(C#N)cc3)nn2)c1 [Example 89, (S)-4-(1-(3-(1-(4-methyl-4H-1,2,4-triazol-3-ylthio)ethyl)phenyl)-1H-1,2,3-triazol-4-yl)benzonitrile] | 1 to 5 | 1 to 5
15 | CNC(=O)c1cccc(-c2cnn(-c3cccc([C@H](C)Sc4nncn4C)c3)n2)c1 [Example 93, (S)—N-methyl-3-(2-(3-(1-(4-methyl-4H-1,2,4-triazol-3-ylthio)ethyl)phenyl)-2H-1,2,3-triazol-4-yl)benzamide] | 1 to 5 | 1 to 5

The next lines start with the values.

Row | IC50 [1] [µM] | IC50 [2] [µM] | SMILES
16 | 1 to 5 | 1 to 5 | C[C@H](Sc1nncn1C)c1cccc(-c2cc(-c3ccc(CO)cc3)no2)c1 [Example 64, (S)-(4-(5-(3-(1-(4-methyl-4H-1,2,4-triazol-3-ylthio)ethyl)phenyl)isoxazol-3-yl)phenyl)methanol]
17 | 1 to 5 | 1 to 5 | CNC(=O)c1ccc(-c2cc(-c3cccc([C@H](C)Sc4nncn4C)c3)on2)cc1 [Example 65, (S)—N-methyl-4-(5-(3-(1-(4-methyl-4H-1,2,4-triazol-3-ylthio)ethyl)phenyl)isoxazol-3-yl)benzamide]
18 | ≥ 5 | ≥ 5 | C[C@H](Sc1nncn1C)c1cccc(-c2cc(-c3ccc(S(C)(=O)=O)cc3)no2)c1 [Example 66, ((S)-5-(3-(1-(4-methyl-4H-1,2,4-triazol-3-yl)thio)ethyl)phenyl)-3-(4-(methylsulfonyl)phenyl)isoxazole]
19 | 1 to 5 | 1 to 5 | C[C@H](Sc1nncn1C)c1cccc(-c2cc(-c3ccccc3)no2)c1 [Example 67, (S)-5-(3-(1-((4-methyl-4H-1,2,4-triazol-3-yl)thio)ethyl)phenyl)-3-phenylisoxazole]
20 | ≥ 5 | ≥ 5 | C[C@@H](Sc1nncn1C)c1cccc(-c2cc(-c3ccccc3)no2)c1 [Example 68, (R)-5-(3-(1-((4-methyl-4H-1,2,4-triazol-3-yl)thio)ethyl)phenyl)-3-phenylisoxazole]
21 | 1 to 5 | 1 to 5 | CC(Sc1nncn1C)c1cccc(-c2cc(-c3cccc(C(F)(F)F)c3)no2)c1 (stereo not drawn) [Example 69, 5-(3-(1-((4-methyl-4H-1,2,4-triazol-3-yl)thio)ethyl)phenyl)-3-(3-(trifluoromethyl)phenyl)isoxazole]
22 | ≥ 5 | ≥ 5 | CC(Sc1nncn1C)c1cccc(-c2cc(-c3ccccn3)no2)c1 (stereo not drawn) [Example 70, 5-(3-(1-((4-methyl-4H-1,2,4-triazol-3-yl)thio)ethyl)phenyl)-3-(pyridin-2-yl)isoxazole]
23 | ≥ 5 | ≥ 5 | CC(Sc1nncn1C)c1ccnc(-c2cc(-c3ccccc3)no2)c1 (stereo not drawn) [Example 71, 5-(4-(1-((4-methyl-4H-1,2,4-triazol-3-yl)thio)ethyl)pyridin-2-yl)-3-phenylisoxazole]
24 |  | 1 to 5 | COc1cccc(-c2cnn(-c3cccc([C@H](C)Sc4nncn4C)c3)n2)c1 [Example 76, (S)-4-(3-methoxyphenyl)-2-(3-(1-((4-methyl-4H-1,2,4-triazol-3-yl)thio)ethyl)phenyl)-2H-1,2,3-triazole]
25 |  | 1 to 5 | COc1cccc(-c2cn(-c3cccc([C@H](C)Sc4nncn4C)c3)nn2)c1 [Example 77, (S)-4-(3-methoxyphenyl)-1-(3-(1-((4-methyl-4H-1,2,4-triazol-3-yl)thio)ethyl)phenyl)-1H-1,2,3-triazole]
26 |  | 1 to 5 | C[C@H](Sc1nncn1C)c1cccc(-n2ncc(-c3cccc(Cl)c3)n2)c1 [Example 78, 4-(3-chlorophenyl)-2-[3-[(1S)-1-[(4-methyl-4H-1,2,4-triazol-3-yl)sulfanyl]ethyl]phenyl]-2H-1,2,3-triazole]
27 |  | 1 to 5 | C[C@H](Sc1nncn1C)c1cccc(-n2cc(-c3cccc(Cl)c3)nn2)c1 [Example 79, 4-(3-chlorophenyl)-1-{3-[(1S)-1-[(4-methyl-4H-1,2,4-triazol-3-yl)sulfanyl]ethyl]phenyl}-1H-1,2,3-triazole]
28 | 1 to 5 | 1 to 5 | C[C@H](Sc1nncn1C)c1cccc(-n2ncc(-c3cccc(C(=O)O)c3)n2)c1 [Example 90, (S)-3-(2-(3-(1-(4-methyl-4H-1,2,4-triazol-3-ylthio)ethyl)phenyl)-2H-1,2,3-triazol-4-yl)benzoic acid]
29 | ≥ 5 | ≥ 5 | C[C@H](Sc1nncn1C)c1cccc(-n2cc(-c3cccc(C(=O)O)c3)nn2)c1 [Example 91, (S)-3-(1-(3-(1-(4-methyl-4H-1,2,4-triazol-3-ylthio)ethyl)phenyl)-1H-1,2,3-triazol-4-yl)benzoic acid]
30 | ≥ 5 | ≥ 5 | C[C@H](Sc1nncn1C)c1cccc(-n2cc(-c3cccc(CO)c3)nn2)c1 [Example 92, (S)-(3-(1-(3-(1-(4-methyl-4H-1,2,4-triazol-3-ylthio)ethyl)phenyl)-1H-1,2,3-triazol-4-yl)phenyl)methanol]
31 | ≥ 5 | ≥ 5 | CNC(=O)c1cccc(-c2cn(-c3cccc([C@H](C)Sc4nncn4C)c3)nn2)c1 [Example 94, (S)—N-methyl-3-(1-(3-(1-(4-methyl-4H-1,2,4-triazol-3-ylthio)ethyl)phenyl)-1H-1,2,3-triazol-4-yl)benzamide]
32 | 0.1 to 1 | 0.1 to 1 | C[C@H](Sc1nncn1C)c1cccc(-n2ncc(-c3cccc(C(N)=O)c3)n2)c1 [Example 95, (S)-3-(2-(3-(1-(4-methyl-4H-1,2,4-triazol-3-ylthio)ethyl)phenyl)-2H-1,2,3-triazol-4-yl)benzamide]
33 | 1 to 5 | 1 to 5 | C[C@H](Sc1nncn1C)c1cccc(-n2cc(-c3cccc(C(N)=O)c3)nn2)c1 [Example 96, (S)-3-(1-(3-(1-(4-methyl-4H-1,2,4-triazol-3-ylthio)ethyl)phenyl)-1H-1,2,3-triazol-4-yl)benzamide]
34 | 1 to 5 | 1 to 5 | C[C@H](Sc1nncn1C)c1cccc(-n2ncc(-c3cccc(C#N)c3)n2)c1 [Example 97, (S)-3-(2-(3-(1-(4-methyl-4H-1,2,4-triazol-3-ylthio)ethyl)phenyl)-2H-1,2,3-triazol-4-yl)benzonitrile]
